Ends that are not written are not given here.
System: normal young male Fischer 344 rats
Assay: Striatal microdialysis 28 days after intranigral DNSP-11
Format: in vivo, rat
Procedure: Infusion Delivery of DNSP-11 or Vehicle: Isoflurane anesthetized (1.5-2.5%) F344 rats received 5 μl of 6 μg/μL DNSP-11 solution or citrate buffer vehicle solution in a blinded manner. Treatment was delivered to the nigral cell bodies using the same stereotaxic coordinates and protocol for solution delivery as in studies of GDNF.
Reverse Microdialysis: Reverse in vivo microdialysis was accomplished using methods and brain coordinates described by Hebert et al. (1996)J Pharmacol. Exper. Ther. 279:1181-1190. CMA 11 microdialysis probes with a 4.0 mm membrane length and 6 kDa molecular weight cut-off were placed within the rat striatum.
Prior studies with GDNF have shown robust effects on both potassium and amphetamine-evoked release 28 days after a single injection into the rat substantia nigra (Hebert et al. (1997) J. Pharm. Exp. Thera. 282: 760) indicating the functional effects of this trophic factor on dopamine signaling in the normal rat striatum. In the present experiment, 30 μg of DNSP-11 was injected into the right substantia nigra of normal young male Fischer 344 rats. Twenty-eight days after injection, in vivo microdialysis was performed in these animals to investigate dopamine neurochemistry in the ipsilateral striatum. […] Winkler et al. (1996) J. Neurosci. 16: 7206; Hebert et al. (1996) J Pharmacol Exper Ther. 279: 1181-1190 (1996).

[1] = ipsilateral striatum, 28 days after 30 μg into right substantia nigra

PPEAPAEDRSL-NH2 [DNSP-11, PPEAPAEDRSL-amide]
Basal DA (28 days after delivery, vehicle 26.0±2.7 nM): 45.8 ± 7.7 nM | Basal concentrations of HVA (28 days after delivery, vehicle 2419±251 nM): 4.516 ± 0.502 µM | Basal concentrations of DOPAC (28 days after delivery, vehicle 3355±338 nM): 6.544 ± 0.836 µM | resting levels of HVA, increase vs controls [1]: over 100% | resting levels of dopamine, increase vs controls [1]: over 100%

— patent US9402875B2, “Amidated dopamine neuron stimulating peptide restoration of mitochondrial activity” (University of Kentucky Research Foundation, priority 2006, dated 2016)
